# In patent US6875578B2, “System for cell-based screening” (priority 1997, dated 2005):
# What was measured:
# SNB-19 cells = assay: High-content screen of paclitaxel-induced apoptosis, SNB-19 cells; assay type: cell-based; settings: 26 h
# Description: The cells chosen for this study were mouse connective tissue fibroblasts (L-929; ATCC CCL-1) and a highly invasive glioblastoma cell line (SNB-19; ATCC CRL-2219) (Welch et al., In Vitro Cell. Dev. Bid. 31:610, 1995). The day before treatment with an apoptosis inducing drug, 3500 cells were placed into each well of a 96-well plate and incubated overnight at 37° C. in a humidified 5% CO2 atmosphere. The following day, the culture medium was removed from each well and replaced with fresh medium containing various concentrations of paclitaxel (0-50 μM) from a 20 mM stock made in DMSO. The maximal concentration of DMSO used in these experiments was 0.25%. The cells were then incubated for 26 h as above. At the end of the paclitaxel treatment period, each well received fresh medium containing 750 nM MITOTRACKER™ Red (Molecular Probes; Eugene, Oreg.) and 3 μg/ml Hoechst 33342 DNA-binding dye (Molecular Probes) and was incubated as above for 20 mm. Each well on the plate was then washed with HBSS and fixed with 3.7% formaldehyde in HBSS for 15 mm at room temperature. […] The fluorescence signals from plates stored this way were stable for at least two weeks after preparation. As in the nuclear translocation assay, fluorescence reagents can be designed to convert this assay into a live cell high-content screen.
# The fluorescence intensity of intracellular MITOTRACKER™ Red, Hoechst 33342, and BODIPY™ FL phallacidin was measured with the cell screening system as described supra. […]
# A total of 50-250 cells were measured per image field. For each field of cells, the following calculations were performed: (1) The average nuclear area (μm^2) was calculated by dividing the total nuclear area in a field by the number of nuclei detected. (2) The average nuclear perimeter (μm) was calculated by dividing the sum of the perimeters of all nuclei in a field by the number of nuclei detected in that field. […] (3) The average nuclear brightness was calculated by dividing the integrated intensity of the entire field of nuclei by the number of nuclei in that field. […]
# L929 cells = assay: Apoptosis mitochondrial mass/potential, L929 cells; assay type: cell-based, mouse; settings: 30 hours
# Description: (§1) Cells were plated into 96-well plates at densities of 3×10^3 to 1×10^4 cells/well. The following day apoptotic inducers were added at the indicated concentrations and cells were incubated for the indicated time periods (usually 16-30 hours). Cells were stained with 5 μg/ml Hoechst (Molecular Probes, Inc.) and 750 nM MITOTRACKER™ Red (CMXRos, Molecular Probes, Inc.) in fresh medium and incubated for 30 minutes at 37° C. Cells were washed in HBSS and fixed with 3.7% formaldehyde in HBSS at room temperature. Plates were washed with HBSS and permeabilized with 0.5% v/v TRITON™ X-100 in HBSS at room temperature. Cells were washed 2× with HBSS at room temperature and the plate was sealed. For dual labeling of mitochondria, cells were treated with 200 nM MITOTRACKER™ Green and 200 nM MITOTRACKER™ Red for 0.5 hours before fixation.
# (§2) The mitochondrial membrane potential is measured by labeling mitochondria with both MITOTRACKER™ Green FM and MITOTRACKER™ Red (Molecular Probes, mc). MITOTRACKER™ Red labeling is proportional to both mass and membrane potential. MITOTRACKER™ Green FM labeling is proportional to mass. The ratio of MITOTRACKER™ Red signal to the MITOTRACKER™ Green FM signal provides a measure of mitochondrial membrane potential (Poot and Pierce, 1999). This ratio normalizes the […]. […]
# BHK cells = assay: Apoptosis mitochondrial mass/potential, BHK cells; assay type: cell-based; settings: 30 hours
# Description: as §1, §2
compound,measurement,setting,value
CC(=O)O[C@H]1C(=O)[C@@]2(C)[C@H]([C@H](OC(=O)c3ccccc3)[C@]3(O)C[C@H](OC(=O)[C@H](O)[C@@H](NC(=O)c4ccccc4)c4ccccc4)C(C)=C1C3(C)C)[C@]1(OC(C)=O)CO[C@@H]1C[C@@H]2O [paclitaxel],mitochondrial potential,SNB-19 cells; 10 nM paclitaxel,minimal at the same concentration of paclitaxel
same,"concentration at which area, brightness, and fragmentation of the nucleus and actin polymerization values reached a maximum value",SNB-19 cells,10 nM
same,all the parameters measured at increasing concentrations,SNB-19 cells; >10 nM paclitaxel,approached control levels
same,mitochondrial changes (mass / membrane potential),L929 cells,consistent increases in mitochondrial mass
same,mitochondrial changes (mass / membrane potential),BHK cells,consistent increases in mitochondrial mass
